Laboratory results as given in US20260240872A1, “COMBINATION OF METFORMIN AND GLIBENCLAMIDE IN THE TREATMENT OF PARKINSON'S DISEASE” (CXS THERAPEUTICS, priority 2023, published 2026).

B1: BDNF: Brain Derived Neurotrophic factor, used as reference compound (positive control) at 50 ng/ml (protein, UniProt P23560 19-247, looked up)
Neurotrophic factor BDNF …: APMKEANIRGQGGLAYPGVRTHGTLESVNGPKAGSRGLTSLADTFEHVIEELLDEDQKVRPNEENNKDADLYTSRVMLSSQVPLEPPLLFLLEEYKNYLDAANMSMRVRRHSDPARRGELSVCDSISEWVTAADKKTAVDMSGGTVTVLEKVPVSKGQLKQYFYETKCNPMGYTKEGCRGIDKRHWNSQCRTTQSYVRALTMDSKKRIGWRFIRIDTSCVCTLTIKRGR

Tests used:
Assay type in all cases: cell-based
[1] = test system: rat primary dopaminergic neurons; assay: Example 2: 6-OHDA injury, protective protocol, length of TH positive neurites; conditions: for neurites loss (decrease of neurites length): 6-OHDA 20 μM, 48 hours; for neurites loss / protection of neurites from damages induced by 6-OHDA: one-hour pre-treatment, 6-OHDA 48 hours; for neurites loss: Plate 1, not significant; for protection of neurites from damages induced by 6-OHDA: compound alone, conclusion; for neurites length: p<0.05
Protocol: (§1) The total number and the neurites length of dopaminergic neurons was assessed.
(§2) Rat mesencephalic neurons were cultured as described by Schinelli et al., 1988. Briefly pregnant female rats of 15 days gestation were killed by cervical dislocation (Rats Wistar; Janvier Lab) and the fetuses removed from the uterus. The embryonic midbrains were removed and placed in ice-cold medium of Leibovitz 15 (L15; PanBiotech, Ref P04-27055, Batch: 1260323) containing 2% of Penicillin-Streptomycin (PS; PanBiotech, ref: P06-07100, Batch: 2585615) and 1% of bovine serum albumin (BSA; Sigma, Ref: 810533, Batch: 73). Only the ventral portions of the mesencephalic flexure were used for the cell preparation as this region of the developing brain is enriched in dopaminergic neurons. The midbrains were dissociated by […] for 20 minutes (min) at 37° C. (Trypsin EDTA 1×; PanBiotech, Ref: P10-023100, Batch: 8290223). The reaction was stopped by the addition of Dulbecco's modified Eagles medium (DMEM; PanBiotech, Ref: P04-03600, Batch: 6041222) containing Dnase | grade II (0.1 mg/ml; PanBiotech, Ref: P60-37780100, Batch: H210916) and 10% of fetal calf serum (FCS; Invitrogen, Ref: 10270106, Batch: 2534381). Cells were then mechanically dissociated by 3 passages through a 10 mL pipette. Cells were then centrifuged at 180×g for 10 min at +4° C. on a layer of BSA (3.5%) in L15 medium. The supernatant was discarded and the cell pellets were resuspended in a defined culture medium consisting of Neurobasal Plus (Gibco, Ref: A3582901, Batch: 2537248) supplemented with 2% of B27 Plus (Gibco, ref: A3582801, Batch: 2722550), L-glutamine (2 mM; PanBiotech, Ref: P04-80100, Batch: 7061121), 2% of PS, 10 ng/ml of BDNF PeproTech, Ref: 450-02, Batch: 092361) and 1 ng/ml of Glial Derived Neurotrophic factor (GDNF; PeproTech, Ref: 450-10, Batch: 012364). Viable cells were then counted in a Neubauer cytometer using the trypan blue exclusion test. The cells were seeded at a density of 40 000 cells/well in 96 well-plates coated with poly-L-Ornithine (Sigma, Ref: P4957, Batch: RNBL6953) and laminin (Sigma, Ref: L2020, Batch: 0000216258), and were cultured at 37° C. in a humidified air (95%)/CO2 (5%) atmosphere. Half of the medium was changed every 2 days with fresh medium. In these conditions, after 5 days of culture, astrocytes are present in the culture and release growth factor allowing neurons differentiation. In this condition, 2 to 5% of neurons are dopaminergic neurons.
(§3) Briefly, 6-OHDA (Sigma, Ref: H4381, Batch: MKCQ5002) was reconstituted in define culture medium at 40 μM (stock solution). The control medium was prepared in the same conditions. After 7 days of culture, primary mesencephalic neurons were pre-treated for 1 hour with test compounds or reference compound (BDNF, 50 ng/ml) and then intoxicated with 6-OHDA at a final concentration of 20 μM for 2 days incubation in order to induce a neuronal cell death of about 40%. The following conditions were done:
(§4) After 2 days of intoxication, cells were fixed by a solution of 4% paraformaldehyde (Alpha Aesar, ref J19943, Batch: 211457) for 20 min at room temperature, the control conditions were fixed as well following the same procedure. The cells were then permeabilized and non-specific sites were blocked with a solution of phosphate buffered saline (PBS; VWR; ref: L0615-500, Batch: MS01 MB) containing 0.1% of saponin (Sigma; ref: S7900, Batch: BCBL8667V) and 1% FCS for 15 min at room temperature. Cells were incubated with a rabbit polyclonal anti-Tyrosine Hydroxylase antibody (TH, 1/1000, Sigma, ref: AB152, Batch: 3870479) in a solution of PBS overnight at 4° C.
(§5) Nuclei of cells were labelled by a fluorescent marker (Hoechst, Sigma; ref: B1155, Batch: 046M4048V) in the same solution.
(§6) For each condition, 20 pictures per well were taken using InCell Analyzer™ 2200 (GE Healthcare) with 20× magnification. Images of each culture well were taken in same condition.

[2] = test system: rat primary dopaminergic neurons; assay: Example 2: 6-OHDA injury, protective protocol, total number of TH positive neurons (dopaminergic neurons survival); conditions: for cellular death (decrease of dopaminergic neurons survival): 48 hours; for cellular death / protection of dopaminergic neurons from cell death induced by 6-OHDA: one-hour pre-treatment; for cellular death: 6-OHDA 20 μM 48 hours, Plate 1, not significant; for protection of dopaminergic neurons from cell death induced by 6-OHDA: compound alone, 6-OHDA 48 hours, conclusion; for dopaminergic neurons survival: BDNF 50 ng/ml + 6-OHDA 20 μM 48 hours
Protocol: as §1, §2, §3, §4, §5, §6

[3] = test system: rat primary dopaminergic neurons; assay: Example 1: 6OH-DA injury on rat primary mesencephalic culture, number of TH positive dopaminergic neurons (survival/viability); conditions: FIG. 1
[4] = test system: rat primary dopaminergic neurons; assay: Example 1: 6OH-DA injury on rat primary mesencephalic culture, neurite length (fitness) of dopaminergic neurons; conditions: compound alone; as compared to Brain Derived Neurotrophic Factor; FIG. 2
Description: In these conditions, after 5 days of culture, astrocytes are present in the culture and release growth factor allowing neurons differentiation.

Molecule | neurites loss ([1]; compound alone at 1 μM) [%] | neurites loss ([1]; compound alone at 3 μM) [%] | neurites loss ([1]; compound alone at 10 μM) [%] | protection of neurites from damages induced by 6-OHDA [1] | cellular death ([2]; compound alone at 1 μM) [%] | cellular death ([2]; compound alone at 3 μM) [%] | cellular death ([2]; compound alone at 10 μM) [%] | protection of dopaminergic neurons from cell death induced by 6-OHDA [2] | further results
NCCc1cc(O)c(O)cc1O [6-OHDA, 6-hydroxydopamine] | – | – | – | – | – | – | – | – | neurites loss (decrease of neurites length) ([1]; Plate 1, FIG. 9, p<0.001): 54%; neurites loss (decrease of neurites length) ([1]; Plate 2, FIG. 10, p<0.0001): 56%; neurites loss (decrease of neurites length) ([1]; Plate 3, FIG. 11, p<0.001): 45%; cellular death (decrease of dopaminergic neurons survival) ([2]; 20 μM, Plate 2, FIG. 7, p<0.0001): 55%; cellular death (decrease of dopaminergic neurons survival) ([2]; 6-OHDA 20 μM, Plate 1, FIG. 6, p<0.0001): 54%; cellular death (decrease of dopaminergic neurons survival) ([2]; 6-OHDA 20 μM, Plate 3, FIG. 8, p<0.001): 46%
CN(C)C(=N)NC(=N)N [CXS001, 1,1-dimethylbiguanide] | 38 | 43 | 55 | does not protect | 43 | 44 | 51 | does not protect | –
COc1ccc(Cl)cc1C(=O)NCCc1ccc(S(=O)(=O)NC(=O)NC2CCCCC2)cc1 [CXS002, Glibenclamide] | 58 | 57 | 47 | does not protect | 58 | 57 | 47 | does not protect | neuron viability ([3]; at high concentration, 6OHDA intoxication): seems to decrease neuron viability; dopaminergic neuron survival in 6OHDA intoxication ([3]; compound alone, as compared to Brain Derived Neurotrophic Factor): did not improve dopaminergic neuron survival; dopaminergic neuron fitness (neurite length) in 6OHDA intoxication [4]: did not improve dopaminergic neuron fitness
B1 | – | – | – | – | – | – | – | – | neurites length ([1]; BDNF 50 ng/mL + 6-OHDA 20 μM 48 hours, Plate 1, FIG. 9): 79 % of the control; neurites length ([1]; BDNF 50 ng/ml + 6-OHDA 20 μM 48 hours, Plate 2, FIG. 10): 76 % of the control; neurites length ([1]; BDNF 50 ng/ml + 6-OHDA 20 μM 48 hours, Plate 3, FIG. 11): 85 % of the control; dopaminergic neurons survival ([2]; Plate 1, FIG. 6, p<0.05): 81 % of the control; dopaminergic neurons survival ([2]; Plate 2, FIG. 7, p<0.0001): 87 % of the control; dopaminergic neurons survival ([2]; Plate 3, FIG. 8, p<0.05): 83 % of the control
